Columns and labels:
Assay type in all cases: cell-based, human
PECAM-1 = test: IL-8 treatment of artificial tissue, phosphorylation of PECAM-1 by immunoblot; settings: artificial tissue treated with IL-8 at 50, 100, 300, 600, 1000 ng/ml for 30 minutes; immunoblot (FIG. 3)
Description: (§1) Cell cultures: Three dimensional artificial tissues were created as described above in Example 1 using primary normal human microvascular endothelial cells from adult lung (hMVEC; Clonetics), and primary adult normal human dermal fibroblasts (NHDF; Clonetics). The cultures were set up in either 24-well plates or Transwell units (Becton Dickinson) with polyethylene tetraphthalate filters containing 4 μm pores. Cultures were maintained at 37° C. and of 5% CO2 for at least 2 weeks. Medium was changed 24 hours after the cultures were started and then fed every 48 hours.
(§2) Immunoblotting: SDS-PAGE was performed using 10% separating Doucet gels (Doucet, J., and J. Trifaro. A discontinous and highly porous sodium dodecyl sulfatepolyacrylamide slab gel system of high resolution. Anal. Biochem. (1988) 168:265-271.). Protein transfer to nitrocellulose membranes was performed using a wet-transfer apparatus (BioRad) at 100V for 45 min at room temperature. The membranes were blocked for 1 hour in 5% BSA in TTBS (0.05% Tween in Tris buffered saline) and incubated overnight at 4° C. in primary antibody diluted in 1% BSA in TTBS. The membranes were washed 3 times for 20 min each with TTBS, incubated in anti-mouse or anti-rabbit HRP (1:10,000) in 1% BSA for 1 hr, and washed 3 times for 20 minutes each with TTBS. The antibody bound to the membrane was visualized using ECL chemiluminescent kit (Amersham). […]

MMP-9 = test: Gelatin zymogram assay of MMP-9 in IL-8 treated artificial tissue; settings: Cell/ECM extracts and culture medium (supernatants); samples collected 24 hours after IL-8 treatment (FIG. 4)
Description: as §1
Zymography: Zymography was performed using 10% denaturing polyacrylamide gels as previously described (Paech and Christiansen. (1994) In Cell biology: a laboratory handbook. (J. Celis, Ed.) V.3 pp.264-271 San Diego: Academic Press). Briefly, gels to test for gelatinolytic activity contained 1% gelatin (Sigma) and were cast 12 hours before the sample separation. Protein samples were separated at 4° C. with 10 mA constant current for each gel. The proteins were renatured using two washes of 15 minutes each in 2.5% Triton-X100 twice at RT. […]

VE-cadherin = test: IL-8 treatment of artificial tissue, phosphorylation of VE-Cadherin by immunoblot; settings: artificial tissue treated with IL-8 at 50, 100, 300, 600, 1000 ng/ml for 30 minutes; immunoblot (FIG. 3)
Description: as §1, §2

In the case of “IL-8: human chemokine IL-8, used as test compound on the artificial tissue”, the “phosphorylation of PECAM in microvessels” value (PECAM-1) is reported as “stimulates the phosphorylation”, the MMP-9 activation (MMP-9) is reported as “increases MMP-9 production and activation in a dose-dependent manner” and the MMP-9 production (MMP-9) is reported as “increases MMP-9 production and activation in a dose-dependent manner”. The “phosphorylation of VE-cadherin in microvessels” value (VE-cadherin) was “stimulates the phosphorylation”.

— patent publication US20030109920A1, “Engineered animal tissue” (The Regents of the University of California, priority 2001, published 2003)
